According to patent US12042503B2, “Compositions and methods for treating coronavirus infections” (priority 2020, dated 2024):

Columns and labels:
[1] = Effect of food on oral absorption of GP1681
EP4 receptor (PTGER4) = target: T1, EP4 receptor (PTGER4) (Homo sapiens, UniProt P35408); assay: PathHunter beta-arrestin cell-based prostanoid receptor assay, EP4; conditions: β-Arrestin
T1 construct: expressed in transfected cells; host or cells: PathHunter β-Arrestin PTGER4 (EP4) cell line
Protocol: (§1) DiscoverX cell-based ligand binding assays were performed in the PathHunter beta-arrestin (EP1, EP2, EP3, EP4, FP, IP, and TP receptors) or cAMP Hunter™ (DP receptor) cell lines.
(§2) Receptor binding studies were performed in either the PathHunter® b-Arrestin (EP1, EP2, EP3, EP4, FP, IP, and TP receptors) or cAMP Hunter™ (DP receptor) cell lines. A 10 mM working stock of GP1681 was created in 1×PBS, pH 7.4. All assays were carried out in duplicate with 10 individual concentrations of GP1681. A three-fold dilution series of GP1681 was established for the initial or pilot experiment with a starting concentration of 4 uM (starting concentration was chosen based on previous Gemmus Pharma preclinical experimental results).
GP1681 was incubated with cells lines at either 37° C. or room temperature, for 90-180 minutes (temperatures and incubation times are all dependent on established optimized procedures for each receptor cell line) after which cell wells were processed and signal production detected. […] Receptor binding activity was analyzed using CBIS data analysis suite (ChemInnovation, CA). The percentage of activity was calculated using the following formula: % Activity=100%×(mean RLU of test sample−mean RLU of vehicle control)/(mean MAX control ligand−mean RLU of vehicle control). Dose curves were performed and EC50 values determined. […]

IP receptor (PTGIR) = target: T2, IP receptor (PTGIR) (Homo sapiens, UniProt P43119); assay: PathHunter beta-arrestin cell-based prostanoid receptor assay, IP; conditions: Run 1, GP1681 starting concentration 4 uM; β-Arrestin; read-out: EC50
T2 construct: host or cells: PathHunter beta-arrestin cell line
T2 sequence (P43119 whole entry): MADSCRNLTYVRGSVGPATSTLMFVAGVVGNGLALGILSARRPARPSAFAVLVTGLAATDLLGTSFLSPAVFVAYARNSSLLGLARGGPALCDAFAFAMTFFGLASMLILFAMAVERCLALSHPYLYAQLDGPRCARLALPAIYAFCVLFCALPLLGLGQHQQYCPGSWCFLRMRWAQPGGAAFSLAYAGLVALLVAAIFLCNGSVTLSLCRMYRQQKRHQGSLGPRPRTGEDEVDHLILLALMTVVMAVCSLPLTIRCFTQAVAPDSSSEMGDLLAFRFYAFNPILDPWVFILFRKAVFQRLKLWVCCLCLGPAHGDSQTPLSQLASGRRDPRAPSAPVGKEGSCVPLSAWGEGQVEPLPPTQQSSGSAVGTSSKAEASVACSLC
Protocol: as §1, §2
(§3) GP1681 was incubated with cells lines at either 37° C. or room temperature, for 90-180 minutes (temperatures and incubation times are all dependent on established optimized procedures for each receptor cell line) after which cell wells were processed and signal production detected. […] Vehicle only controls (PBS, pH 7.4) were also included for each receptor cell line. Receptor binding activity was analyzed using CBIS data analysis suite (ChemInnovation, CA). The percentage of activity was calculated using the following formula: % Activity=100%×(mean RLU of test sample−mean RLU of vehicle control)/(mean MAX control ligand−mean RLU of vehicle control). Dose curves were performed and EC50 values determined.

FP receptor (PTGFR) = target: T3, FP receptor (PTGFR) (Homo sapiens, UniProt P43088); assay: PathHunter beta-arrestin cell-based prostanoid receptor assay, FP
T3 construct: host or cells: PathHunter beta-arrestin cell line
T3 sequence (P43088 whole entry): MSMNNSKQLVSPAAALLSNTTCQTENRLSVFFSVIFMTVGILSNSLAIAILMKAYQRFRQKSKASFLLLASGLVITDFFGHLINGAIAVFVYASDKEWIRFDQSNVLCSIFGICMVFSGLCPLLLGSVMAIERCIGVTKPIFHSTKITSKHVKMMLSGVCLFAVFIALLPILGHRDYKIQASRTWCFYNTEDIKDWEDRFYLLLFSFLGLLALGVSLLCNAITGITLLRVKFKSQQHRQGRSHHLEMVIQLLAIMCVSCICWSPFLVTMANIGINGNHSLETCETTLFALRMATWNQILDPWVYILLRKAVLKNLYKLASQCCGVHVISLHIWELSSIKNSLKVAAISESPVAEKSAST
Protocol: as §1, §2
GP1681 was incubated with cells lines at either 37° C. or room temperature, for 90-180 minutes (temperatures and incubation times are all dependent on established optimized procedures for each receptor cell line) after which cell wells were processed and signal production detected. […] Receptor binding activity was analyzed using CBIS data analysis suite (ChemInnovation, CA). The percentage of activity was calculated using the following formula: % Activity=100%×(mean RLU of test sample−mean RLU of vehicle control)/(mean MAX control ligand−mean RLU of vehicle control). Dose curves were performed and EC50 values determined.

DP1 receptor (PTGDR) = target: T4, DP1 receptor (PTGDR) (Homo sapiens, UniProt Q13258); assay: cAMP Hunter cell-based prostanoid receptor assay, DP receptor; conditions: HitHunter cAMP cell line
T4 construct: host or cells: cAMP Hunter (DP receptor) cell line
T4 sequence (Q13258 1-359): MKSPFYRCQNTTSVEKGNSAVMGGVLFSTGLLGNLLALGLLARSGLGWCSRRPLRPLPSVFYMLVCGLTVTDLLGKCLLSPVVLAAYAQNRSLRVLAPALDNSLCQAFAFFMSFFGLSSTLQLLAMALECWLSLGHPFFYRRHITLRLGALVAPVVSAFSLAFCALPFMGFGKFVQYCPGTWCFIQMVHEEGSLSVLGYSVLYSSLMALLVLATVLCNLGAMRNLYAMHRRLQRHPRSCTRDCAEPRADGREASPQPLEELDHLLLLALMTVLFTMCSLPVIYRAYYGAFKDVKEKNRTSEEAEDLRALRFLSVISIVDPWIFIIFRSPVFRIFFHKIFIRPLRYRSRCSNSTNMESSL
Protocol: as §1, §2, §3
The four assays were repeated with a higher starting concentration.
The second experimental run of the receptor binding assay was performed with these last four cell lines including GP1681 and their respective positive and negative (vehicle, PBS pH 7.4) controls. A 10 mM GP1681 working stock was again created in 1×PBS, pH 7.4. A three-fold serial dilution scheme was again used for GP1681 samples, starting this time at a concentration of 500 μM. The remainder of the second experimental run was performed in the same manner as run 1.

[2] = Stability of GP1681 dosing formulations at room temperature by UHPLC; format: physicochemical; conditions: 10% (w/v) PEG 400 in calcium and magnesium free PBS, pH 7.4; 0.0319 and 0.0596 mg/mL
Protocol: GP1681 in 10% (w/v) polyethylene glycol (PEG) 400 in calcium and magnesium free phosphate buffered saline (PBS), pH 7.4 was used for evaluation by ultra-high performance liquid chromatography (UHPLC; Agilent 1290 UHPLC instrument).
Dosing formulations of GP1681 (0, 0.01, 0.03, and 0.05 mg/mL) in 10% (w/v) PEG 400 in calcium and magnesium free PBS, pH 7.4 were collected and analyzed by UHPLC to assess accuracy of the preparation. Aliquots from the top, middle and bottom of the formulations were collected and analyzed to assess homogeneity of the formulations. The dosing formulations were diluted to bring the test article concentration to a suitable level within the calibration range. The samples were initially analyzed on the day of preparation. However, due to unacceptable results observed, the backup samples (stored at −10 to −30° C.) were analyzed five days later.
The concentration of GP1681 was calculated by reference to the solvent standard solutions prepared and analyzed concurrently with the dosing formulations. […]
Stability of the dosing formulations was determined by storing the middle aliquots of the high and low primary dose formulation samples in the Definitive Assay at room temperature for 3.7 hours and reanalyzing as described above. The results met the acceptance criterion of 90-110% of the concentration determined at T=0.

[3] = Run 1, GP1681 starting concentration 4 uM, curve for GP1681 not fully sigmoidal
[4] = Run 2, GP1681 starting concentration 500 μM

T1 sequence (P35408 whole entry): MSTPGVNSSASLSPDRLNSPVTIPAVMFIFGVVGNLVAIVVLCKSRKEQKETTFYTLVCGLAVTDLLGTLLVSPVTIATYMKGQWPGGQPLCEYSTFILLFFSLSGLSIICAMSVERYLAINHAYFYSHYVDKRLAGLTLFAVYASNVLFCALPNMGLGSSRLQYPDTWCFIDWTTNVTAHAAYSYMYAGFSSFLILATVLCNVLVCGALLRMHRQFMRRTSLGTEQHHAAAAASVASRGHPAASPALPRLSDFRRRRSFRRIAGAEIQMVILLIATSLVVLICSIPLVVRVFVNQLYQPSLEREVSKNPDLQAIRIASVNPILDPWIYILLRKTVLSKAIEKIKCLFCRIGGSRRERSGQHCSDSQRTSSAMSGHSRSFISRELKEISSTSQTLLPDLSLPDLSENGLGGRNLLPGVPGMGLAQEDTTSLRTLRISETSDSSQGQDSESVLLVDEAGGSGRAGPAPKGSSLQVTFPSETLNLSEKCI

In the case of `CC#CCC(C)C(O)C=CC1C(O)CC2Oc3c(CCCC(=O)O)cccc3C21` (single isomer, unassigned) [GP1681, esuberaprost], the “effect of food on oral absorption” value [1] is reported as “positive effect”, the EC50 (EP4 receptor (PTGER4); [3]) is reported as 1.74 µM and the EC50 (EP4 receptor (PTGER4); [4]) is reported as 18.1 µM. The EC50 (IP receptor (PTGIR)) was 0.11 µM, the “binding to FP receptor, in words” value (FP receptor (PTGFR)) was “does not bind” and the EC50 (FP receptor (PTGFR); Run 1, GP1681 starting concentration 4 uM, β-Arrestin) was over 4 µM. For the same compound, the EC50 (DP1 receptor (PTGDR); [3]) was 1.35 µM, the EC50 (DP1 receptor (PTGDR); [4]) was 1.33 µM and the “stable at room temperature” value [2] was “at least 3.7 hours”.
